Test results taken from ChEMBL document CHEMBL1122135, “Modifications of primaquine as antimalarials. 3. 5-Phenoxy derivatives of primaquine” (J Med Chem, 1982).

Columns and labels:
Mus musculus [1] = assay: Antimalarial activity was determined in Plasmodium berghei infected mice (Mus musculus) at 20 mg/kg dose; assay type: functional; set-up: unit not given beside the values
Mus musculus [2] = assay: (§1) Antimalarial activity was determined in Plasmodium berghei infected mice (Mus musculus) at 320 mg/kg dose; assay type: functional; set-up: unit not given beside the values
Mus musculus [3] = assay: Antimalarial activity was determined in Plasmodium berghei infected mice (Mus musculus) at 40 mg/kg dose; assay type: functional; set-up: unit not given beside the values
Mus musculus [4] = assay: Antimalarial activity was determined in Plasmodium berghei infected mice (Mus musculus) at 80 mg/kg dose; assay type: functional
Mus musculus [5] = assay: Number of toxic death was determined in Plasmodium berghei infected mice (Mus musculus) at 640 mg/kg dose; assay type: ADME, organism-based; set-up: dose 640 mg/kg; settings: in vivo
Mus musculus [6] = assay: Antimalarial activity was determined in Plasmodium berghei infected mice (Mus musculus) at 160 mg/kg dose; assay type: functional
Plasmodium cynomolgi [7] = assay: Cures in Plasmodium cynomolgi infected rhesus monkey at 3.16 mg/kg, n=2; assay type: functional
Plasmodium cynomolgi [8] = assay: Cures in Plasmodium cynomolgi infected rhesus monkey at 10 mg/kg, n=1; assay type: functional
Plasmodium cynomolgi [9] = assay: Cures in Plasmodium cynomolgi infected rhesus monkey at 1 mg/kg, n=3; assay type: functional
Mus musculus [10] = assay: Antimalarial activity was determined in Plasmodium berghei infected mice (Mus musculus) at 640 mg/kg dose; assay type: functional
Mus musculus [11] = assay: Number of mice (Mus musculus) survived after 60 days of post infection with Plasmodium berghei at a dose of 40 mg/kg; assay type: functional
Mus musculus [12] = assay: Number of mice (Mus musculus) survived after 60 days of post infection with Plasmodium berghei at a dose of 80 mg/kg; assay type: functional
Mus musculus [13] = assay: Number of mice (Mus musculus) survived after 60 days of post infection with Plasmodium berghei at a dose of 160 mg/kg; assay type: functional
Mus musculus [14] = assay: Number of mice (Mus musculus) survived after 60 days of post infection with Plasmodium berghei at a dose of 20 mg/kg; assay type: functional
Mus musculus [15] = assay: Number of toxic death was determined in Plasmodium berghei infected mice (Mus musculus) at 320 mg/kg dose; assay type: ADME, organism-based; set-up: dose 320 mg/kg; settings: in vivo
Mus musculus [16] = assay: Antimalarial activity was determined in Plasmodium berghei infected mice (Mus musculus) at 10 mg/kg dose; assay type: functional
Plasmodium cynomolgi [17] = assay: Cures in Plasmodium cynomolgi infected rhesus monkey at 1 mg/kg, n=1; assay type: functional
Plasmodium cynomolgi [18] = assay: Cures in Plasmodium cynomolgi infected rhesus monkey at 3.16 mg/kg, n=1; assay type: functional
Plasmodium cynomolgi [19] = assay: Cures in Plasmodium cynomolgi infected rhesus monkey at 0.316 mg/kg, n=2; assay type: functional
Plasmodium cynomolgi [20] = assay: Number of cures in Plasmodium cynomolgi infected rhesus monkey at 0.25 mg/kg, n=8; assay type: functional
Plasmodium cynomolgi [21] = assay: Cures in Plasmodium cynomolgi infected rhesus monkey at 0.75 mg/kg, n=9; assay type: functional
Plasmodium cynomolgi [22] = assay: Cures in Plasmodium cynomolgi infected rhesus monkey at 0.5 mg/kg, n=12; assay type: functional
Mus musculus [23] = assay: Number of toxic death was determined in Plasmodium berghei infected mice (Mus musculus) at 160 mg/kg dose; assay type: ADME, organism-based; set-up: dose 160 mg/kg; settings: in vivo
Plasmodium cynomolgi [24] = assay: Cures in Plasmodium cynomolgi infected rhesus monkey at 1 mg/kg, n=2; assay type: functional
Plasmodium cynomolgi [25] = assay: Cures in Plasmodium cynomolgi infected rhesus monkey at 0.316 mg/kg, n=4; assay type: functional
Plasmodium cynomolgi [26] = assay: Cures in Plasmodium cynomolgi infected rhesus monkey at 0.5 mg/kg; n=2; assay type: functional
Plasmodium cynomolgi [27] = assay: Cures in Plasmodium cynomolgi infected rhesus monkey at 0.25 mg/kg, n=1; assay type: functional
Plasmodium cynomolgi [28] = assay: Cures in Plasmodium cynomolgi infected rhesus monkey at 0.75 mg/kg, n=6; assay type: functional
Mus musculus [29] = species: Mus musculus; assay: Number of mice (Mus musculus) survived after 60 days of post infection with Plasmodium berghei; assay type: functional
Plasmodium cynomolgi [30] = assay: Cures in Plasmodium cynomolgi infected rhesus monkey at 0.25 mg/kg, n=5; assay type: functional
Plasmodium cynomolgi [31] = assay: Cures in Plasmodium cynomolgi infected rhesus monkey at 0.125 mg/kg, n=1; assay type: functional
Plasmodium cynomolgi [32] = assay: Cures in Plasmodium cynomolgi infected rhesus monkey at 0.125 mg/kg; n=5; assay type: functional
Plasmodium cynomolgi [33] = assay: Cures in Plasmodium cynomolgi infected rhesus monkey at 0.5 mg/kg, n=5; assay type: functional
Plasmodium cynomolgi [34] = assay: Cures in Plasmodium cynomolgi infected rhesus monkey at 0.5 mg/kg, n=1; assay type: functional
Mus musculus [35] = assay: Number of mice (Mus musculus) survived after 60 days of post infection with Plasmodium berghei at a dose of 640 mg/kg; assay type: functional
Mus musculus [36] = assay: Number of mice (Mus musculus) survived after 60 days of post infection with Plasmodium berghei at a dose of 10 mg/kg; assay type: functional
Mus musculus [37] = assay: Number of mice (Mus musculus) survived after 60 days of post infection with Plasmodium berghei at a dose of 320 mg/kg; assay type: functional
Mus musculus [38] = assay: as §1; assay type: functional

| SMILES | Delta MST (Mus musculus [1]) | Delta MST (Mus musculus [2]) | Delta MST (Mus musculus [3]) | Delta MST (Mus musculus [4]) | Delta MST (Mus musculus [6]) | Cures (Plasmodium cynomolgi [8]) | Cures (Plasmodium cynomolgi [17]) | also measured |
| --- | --- | --- | --- | --- | --- | --- | --- | --- |
| COc1cc(NC(C)CCCN)c2ncc(C)cc2c1Oc1ccc(F)c(C(F)(F)F)c1 (stereo not given) | 5.9 | 4 | 9.9 | 4 | 5 |  |  | Toxic deaths (Mus musculus [5]): 1 |
| COc1cc(NC(C)CCCN)c2ncccc2c1Oc1ccc(Cl)cc1Cl (stereo not given) | 0.4 | 4.4 | 0.4 | 0.8 | 2.2 | 1 |  | Cures (Plasmodium cynomolgi [7]): 2; Cures (Plasmodium cynomolgi [9]): 0; Delta MST (Mus musculus [10]): 10.4 |
| COc1cc(NC(C)CCCN)c2nccc(C)c2c1Oc1ccccc1 (stereo not given) |  |  |  |  |  |  |  | Cures (Mus musculus [11]): 3; Cures (Mus musculus [12]): 4; Cures (Mus musculus [13]): 4; Cures (Mus musculus [14]): 4; Toxic deaths (Mus musculus [15]): 3; Toxic deaths (Mus musculus [5]): 2; Delta MST (Mus musculus [16]): 8.7 |
| COc1cc(NC(C)CCCN)c2ncccc2c1Oc1cc(C(F)(F)F)cc(C(F)(F)F)c1 (stereo not given) | 0.7 | 6.3 | 0.3 | 0.3 | 1.5 | 1 | 0 | Cures (Plasmodium cynomolgi [18]): 1; Delta MST (Mus musculus [10]): 7.9 |
| COc1cc(NC(C)CCCN)c2ncccc2c1 (stereo not given) [PRIMAQUINE] | 4 |  | 5 | 9.4 |  |  |  | Cures (Plasmodium cynomolgi [19]): 0; Cures (Plasmodium cynomolgi [20]): 0; Cures (Plasmodium cynomolgi [21]): 9; Cures (Plasmodium cynomolgi [22]): 10; Toxic deaths (Mus musculus [23]): 2; Toxic deaths (Mus musculus [15]): 5; Toxic deaths (Mus musculus [5]): 5 |
| COc1ccc(Oc2c(OC)cc(NC(C)CCCN)c3ncccc23)cc1 (stereo not given) | 0.4 | 8.6 | 0.4 | 1.6 | 6 | 1 | 0 | Cure (Mus musculus [10]): 4 |
| COc1cc(NC(C)CCCN)c2nccc(C)c2c1 (stereo not given) |  | 10 |  |  | 9 |  |  | Cures (Plasmodium cynomolgi [24]): 2; Cures (Plasmodium cynomolgi [25]): 0; Toxic deaths (Mus musculus [5]): 1 |
| COc1cc(NC(C)CCCN)c2ncccc2c1Oc1ccc(Cl)cc1 (stereo not given) | 0.7 | 8.1 | 4.7 | 5.5 | 7.1 | 1 |  | Cures (Plasmodium cynomolgi [26]): 0; Cures (Plasmodium cynomolgi [27]): 0; Cures (Plasmodium cynomolgi [28]): 5; Cures (Plasmodium cynomolgi [9]): 3; Cures (Mus musculus [29]): 2 |
| COc1cc(NC(C)CCCN)c2ncccc2c1Oc1cccc(C(F)(F)F)c1 (stereo not given) | 0.5 | 13.5 | 1.3 | 4.1 | 7.1 |  | 1 | Cures (Plasmodium cynomolgi [26]): 2; Cures (Plasmodium cynomolgi [30]): 3; Cures (Plasmodium cynomolgi [31]): 0; Cures (Mus musculus [10]): 5 |
| COc1cc(NC(C)CCCN)c2ncccc2c1Oc1ccc(F)cc1 (stereo not given) |  | 8.9 | 2.1 | 5.7 | 7.5 |  |  | Cures (Plasmodium cynomolgi [20]): 3; Cures (Plasmodium cynomolgi [32]): 0; Cures (Plasmodium cynomolgi [33]): 5; Cures (Mus musculus [29]): 5 |
| COc1cc(NC(C)CCCN)c2ncccc2c1Oc1ccc(F)c(C(F)(F)F)c1 (stereo not given) | -0.2 | 12.2 | 0.8 | 3.4 | 4.6 |  | 1 | Cures (Plasmodium cynomolgi [19]): 2; Cures (Mus musculus [10]): 2 |
| COc1cc(NC(C)CCCN)c2ncccc2c1Oc1ccc(NC(C)=O)cc1 (stereo not given) |  |  |  |  |  |  | 0 | Cures (Plasmodium cynomolgi [34]): 0 |
| COc1cc(NC(C)CCCN)c2nccc(C)c2c1Oc1ccc(F)c(C(F)(F)F)c1 (stereo not given) |  |  |  |  |  |  |  | Cures (Mus musculus [11]): 5; Cures (Mus musculus [35]): 5; Cures (Mus musculus [12]): 5; Cures (Mus musculus [36]): 1; Cures (Mus musculus [13]): 5; Cures (Mus musculus [14]): 1; Cures (Mus musculus [37]): 5 |
| COc1cc(NC(C)CCCN)c2ncccc2c1Oc1ccccc1 (stereo not given) | 0.3 | 7.5 | 1.5 | 1.7 | 5.1 |  |  | Cures (Mus musculus [29]): 2 |
| COc1cc(NC(C)CCCN)c2ncccc2c1Oc1ccc(Cl)c(Cl)c1 (stereo not given) | 1.2 |  | 0.8 | 0.4 | 6 | 1 |  | Cures (Plasmodium cynomolgi [7]): 2; Cures (Plasmodium cynomolgi [9]): 1; Cures (Mus musculus [38]): 1; Cures (Mus musculus [10]): 1 |
| COc1cc(NC(C)CCCN)c2nccc(C)c2c1Oc1cc(C(F)(F)F)cc(C(F)(F)F)c1 (stereo not given) | 4.3 |  |  |  |  |  |  | Cures (Mus musculus [11]): 3; Cures (Mus musculus [35]): 5; Cures (Mus musculus [12]): 5; Cures (Mus musculus [13]): 5; Cures (Mus musculus [37]): 5; Delta MST (Mus musculus [16]): 1.7 |
| COc1cc(NC(C)CCCN)c2ncccc2c1Oc1ccc(OC(F)(F)F)cc1 (stereo not given) | -0.3 | 0.7 | -0.3 | -0.3 | 0.5 | 1 | 0 | Toxic deaths (Mus musculus [5]): 1 |
